This passage reports IC50 results from US9981925B2, “Substituted benzo[d][1,2,3]triazines as p70S6K inhibitors” (Merck Patent GmbH, priority 2012, dated 2018).

As usually defined, the IC50 is the point on the concentration scale where inhibition reaches its midpoint.

The target of assay [1] is p70S6K (T412E mutant) (Homo sapiens (Human), UniProt P23443, T412E). The experiment in a line: p70S6K enzyme assay. The conditions noted are these: 24 μM ATP, 90 min at 25° C., Caliper mobility shift. It counts as biochemical. The method, then: p70S6K inhibitor compounds were diluted and plated in 96 well plates. A reaction mixture including the following components were then added to the compound plate to initiate the enzyme reaction: p70S6K (3 nM, T412E mutant, Millipore) was mixed with 24 μM ATP in an assay buffer containing 100 mM Hepes (pH 7.5), 5 mM MgCl2, 1 mM DTT, 0.015% Brij and 1 μM of the substrate peptide FITC-AHA-[…]-OH (derived from the S6 ribosomal protein sequence, FITC=fluorescein isothiocyanate, AHA=6-aminohexanoic acid). The reaction was incubated for 90 min at 25° C., before the addition of 10 mM EDTA to stop the reaction. The proportion of substrate and product (phosphorylated) peptide was analyzed on a Caliper Life Sciences Lab Chip 3000, using a pressure of −1.4 psi, and upstream and downstream voltages of −3000 and −700, respectively. Product peaks were resolved before substrate peaks on the resulting chromatograms. To assess the inhibitory potential of the compounds, IC50 values were determined, as shown above.
p70S6K (T412E mutant), sequence (P23443 whole entry T412E): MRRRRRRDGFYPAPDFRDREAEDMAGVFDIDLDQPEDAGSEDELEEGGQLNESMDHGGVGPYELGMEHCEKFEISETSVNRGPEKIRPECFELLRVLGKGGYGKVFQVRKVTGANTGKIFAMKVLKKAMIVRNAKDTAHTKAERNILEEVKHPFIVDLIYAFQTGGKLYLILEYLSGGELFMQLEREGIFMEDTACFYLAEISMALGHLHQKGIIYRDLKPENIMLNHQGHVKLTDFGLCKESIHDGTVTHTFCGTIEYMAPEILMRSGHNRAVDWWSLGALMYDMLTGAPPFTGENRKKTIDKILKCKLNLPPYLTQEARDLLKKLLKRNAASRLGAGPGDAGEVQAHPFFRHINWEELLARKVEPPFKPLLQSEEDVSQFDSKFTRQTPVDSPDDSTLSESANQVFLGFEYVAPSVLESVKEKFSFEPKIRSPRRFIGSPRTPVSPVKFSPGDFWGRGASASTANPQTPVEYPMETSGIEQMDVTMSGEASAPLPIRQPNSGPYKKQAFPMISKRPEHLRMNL

The target of assay [2] is His-AKT (Full Length) (Homo sapiens (Human), UniProt P31749). The experiment in a line: AKT/PKB kinase assay. Conditions: 160 μM ATP, 90 min at 25° C., Caliper mobility shift. Type of assay: biochemical. The method, then: In order to measure AKT inhibition in the Caliper Life Sciences LC3000, a TTP Mosquito liquid handling instrument was used to place 125 nl of the appropriate concentration of inhibitor in 100% DMSO (for a dose response curve calculation) into each well of a 384-well plate. To this reaction, the following components were added to a final volume of 12.5 μl: • 0.1 ng/μl His-AKT (Full Length) (Invitrogen, Part # P2999, Lot #641228C); • 160 μM ATP (Fluka, 02055); • 1 mM DTT (Sigma, D0632); • 1 mM MgCl2 (Sigma, M1028); • 1 μM substrate peptide (sequence FITC-AHA-[…]-NH2), synthesized by • Tufts Peptide Synthesis service; • 100 mM HEPES pH 7.5 (Calbiochem, 391338); and • 0.015% Brij-35 (Sigma, B4184).
His-AKT (Full Length), sequence (P31749 whole entry): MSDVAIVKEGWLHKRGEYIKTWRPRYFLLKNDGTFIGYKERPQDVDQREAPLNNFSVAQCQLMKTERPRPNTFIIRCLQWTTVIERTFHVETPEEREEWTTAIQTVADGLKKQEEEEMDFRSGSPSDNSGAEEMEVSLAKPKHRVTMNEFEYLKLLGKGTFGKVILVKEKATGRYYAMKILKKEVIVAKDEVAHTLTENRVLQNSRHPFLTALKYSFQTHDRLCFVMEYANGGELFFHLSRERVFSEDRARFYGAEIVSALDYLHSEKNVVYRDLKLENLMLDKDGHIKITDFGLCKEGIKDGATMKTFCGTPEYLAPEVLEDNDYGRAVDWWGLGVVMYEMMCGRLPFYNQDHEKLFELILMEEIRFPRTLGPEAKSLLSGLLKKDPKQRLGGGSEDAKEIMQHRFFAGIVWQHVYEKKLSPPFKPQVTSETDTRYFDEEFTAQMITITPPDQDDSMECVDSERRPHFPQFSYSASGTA
The reaction was incubated for 90 min at 25° C., and then stopped by the addition of 70 μl of Stop buffer (100 mM HEPES pH 7.5, 0.015% Brij-35, 10 mM EDTA (Sigma, E7889)). The plate was read on a Caliper LC 3000 in an Off-Chip mobility shift assay format, using the following parameters for a 12-sipper chip: screening pressure −2.3 psi, upstream voltage −500, and downstream voltage −3000. These conditions cause unphosphorylated substrate and phosphorylated product peptide to resolve as separate peaks allowing direct measurement of percentage of conversion of substrate to product. The percent conversion was plotted against concentration of inhibitor to produce a sigmoidal dose response curve, from which an IC50 was calculated.

Molecules are shown by their SMILES.

For the compound `NC(=O)c1ccnc2c(N[C@@H](CN3CCC3)c3ccc(Cl)c(C(F)(F)F)c3)ncnc12` [Compound 71, 4-[(R)-2-Azetidin-1-yl-1-(4-chloro-3-trifluoromethyl-phenyl)-ethylamino]-pyrido[3,2-d]pyrimidine-8-carboxylamide], the IC50 in assay [1] was 501 to 1000 nM; in assay [2] it was greater than 1000 nM.
For `CCNC[C@@H](Nc1ncnc2c(C(N)=O)ccnc12)c1cc(F)c(F)cc1F` [Compound 58, 4-[(S)-2-Ethylamino-1-(2,4,5-trifluoro-phenyl)-ethylamino]-pyrido[3,2-d]pyrimidine-8-carboxylic Acid Amide], the figures for the IC50 in assay [1] and in assay [2] were 25 to 100 nM and 101 to 500 nM, respectively.
As to `CNC[C@@H](Nc1ncnc2c(C(N)=O)ccnc12)c1ccc(F)c(C)c1` [Compound 67, 4-[(S)-1-(4-Fluoro-3-methyl-phenyl)-2-methylamino-ethylamino]-pyrido[3,2-d]pyrimidine-8-carboxylic Acid Amide], the concentration for half-maximal inhibition (IC50) in assay [1] and in assay [2] was less than 25 nM each time.
In the case of `CCNC[C@@H](Nc1ncnc2c(C(N)=O)ccnc12)c1cc(F)cc(C(F)(F)F)c1` [Compound 34, 4-[(S)-2-Ethylamino-1-(3-fluoro-5-trifluoromethyl-phenyl)-ethylamino]-pyrido[3,2-d]pyrimidine-8-carboxylic Acid Amide], the IC50 in assay [1] fell in the range of 25 to 100 nM; in assay [2], 101 to 500 nM.
For `CN(C)C[C@@H](Nc1nnnc2c(C(N)=O)cccc12)c1ccc(Cl)c(C(F)(F)F)c1` [Compound 13, (S)-4-((1-(4-chloro-3-(trifluoromethyl)phenyl)-2-(dimethylamino)ethyl)amino)benzo-[d][1,2,3]triazine-8-carboxamide] the same measures were less than 25 nM and less than 25 nM.
Regarding `NC(=O)c1ccnc2c(N[C@H](CN3CCC3)c3ccc(C(F)(F)F)c(C(F)(F)F)c3)ncnc12` [Compound 63, 4-[(S)-2-Azetidin-1-yl-1-(3,4-bis-trifluoromethyl-phenyl)-ethylamino]-pyrido[3,2-d]pyrimidine-8-carboxylic Acid Amide], the IC50 in assay [1] and in assay [2] was less than 25 nM in each case.
Turning to `CN(C)C[C@@H](Nc1ncnc2c(C(N)=O)ccnc12)c1ccc(F)c(C(F)(F)F)c1` [Compound 50, 4-[(S)-2-Dimethylamino-1-(4-fluoro-3-trifluoromethyl-phenyl)-ethylamino]-pyrido[3,2-d]pyrimidine-8-carboxylic Acid Amide], the IC50 in assay [1] is less than 25 nM; in assay [2] it was 25 to 100 nM.
For `CN(C)C[C@@H](Nc1nnnc2c(C(N)=O)cccc12)c1ccc(Cl)c(C#N)c1` [Compound 17, (S)-4-((1-(4-chloro-3-cyanophenyl)-2-(dimethylamino)ethyl)amino)-benzo[d][1,2,3]triazine-8-carboxamide], the figures for the IC50 in assay [1] and in assay [2] were 25 to 100 nM and 101 to 500 nM, respectively.
Turning to `CCNC[C@@H](Nc1ncnc2c(C(N)=O)ccnc12)c1ccc(F)c(C(F)(F)F)c1` [Compound 56, 4-[(S)-2-Ethylamino-1-(4-fluoro-3-trifluoromethyl-phenyl)-ethylamino]-pyrido[3,2-d]pyrimidine-8-carboxylic Acid Amide], the results for the IC50 in assay [1] and in assay [2] were less than 25 nM and 25 to 100 nM, respectively.
On to `CNC[C@@H](Nc1ncnc2c(C(N)=O)ccnc12)c1cc(F)c(F)cc1F` [Compound 60, 4-[(S)-2-Methylamino-1-(2,4,5-trifluoro-phenyl)-ethylamino]-pyrido[3,2-d]pyrimidine-8-carboxylic Acid Amide], for which the IC50 in assay [1] and in assay [2] was 25 to 100 nM throughout.
Take `NC(=O)c1cccc2c(NCc3cccnc3)nnnc12` [Compound 3, 4-((pyridin-3-ylmethyl)amino)benzo[d][1,2,3]triazine-8-carboxamide]: the IC50 in assay [1] and in assay [2] was greater than 1000 nM in each case.
Consider `CNC[C@@H](Nc1ncnc2c(C(N)=O)ccnc12)c1cc(F)cc(C(F)(F)F)c1` [Compound 35, 4-[(S)-1-(3-Fluoro-5-trifluoromethyl-phenyl)-2-methylamino-ethylamino]-pyrido[3,2-d]pyrimidine-8-carboxylic Acid Amide], for which the figures for the IC50 in assay [1] and in assay [2] were less than 25 nM and 25 to 100 nM, respectively.
Consider `NC(=O)c1ccnc2c(N[C@H](CN3CCC3)c3ccc(OC(F)(F)F)c(Cl)c3)ncnc12` [Compound 73, 4-[(S)-2-Azetidin-1-yl-1-(3-chloro4-trifluoromethoxy-phenyl)-ethylamino]-pyrido[3,2-d]pyrimidine-8-carboxylamide], for which the results for the half-maximal inhibitory concentration (IC50) in assay [1] and in assay [2] were less than 25 nM and 25 to 100 nM, respectively.
Turning to `NC(=O)c1cccc2c(NCc3ccc(Cl)c(C(F)(F)F)c3)nnnc12` [Compound 4, 4-((4-chloro-3-(trifluoromethyl)benzyl)amino)benzo[d][1,2,3]triazine-8-carboxamide], the IC50 in assay [1] was less than 25 nM; in assay [2], greater than 1000 nM.
For `NC(=O)c1cccc2c(NCc3ccccc3)nnnc12` [Compound 6, 4-(benzylamino)benzo[d][1,2,3]triazine-8-carboxamide] the same measures were 501 to 1000 nM and greater than 1000 nM.
For the compound `NC(=O)c1cccc2c(N[C@H](CN3CCC3)c3ccc(Cl)c(C(F)(F)F)c3)nnnc12` [Compound 14, (S)-4-((2-(azetidin-1-yl)-1-(4-chloro-3-(trifluoromethyl)phenyl)ethyl)amino)benzo[d][1,2,3]triazine-8-carboxamide], the IC50 in assay [1] and in assay [2] was less than 25 nM in each case.
Consider `NC(=O)c1cccc2c(NCc3ccc(Cl)c(Cl)c3)nnnc12` [Compound 2, 4-((3,4-dichlorobenzyl)amino)benzo[d][1,2,3]triazine-8-carboxamide], for which the figures for the 50% inhibitory concentration (IC50) in assay [1] and in assay [2] were less than 25 nM and greater than 1000 nM, respectively.
Take `NC(=O)c1cccc2c(NCc3cccc(C(F)(F)F)c3)nnnc12` [Compound 1, 4-(3-Trifluoromethyl-benzylamino)-benzo[d][1,2,3]triazine-8-carboxamide]: the IC50 was 101 to 500 nM in assay [1] and greater than 1000 nM in assay [2].
On to `NC(=O)c1ccnc2c(NC3CNCCC3c3ccc(F)c(Cl)c3)ncnc12` (centres unmarked) [Compound 23, 4-[4-(3-Chloro-4-fluoro-phenyl)-piperidin-3-ylamino]-pyrido[3,2-d]pyrimidine-8-carboxamide], for which the results for the IC50 in assay [1] and in assay [2] were 25 to 100 nM and 101 to 500 nM, respectively.
As to `CNC[C@@H](Nc1ncnc2c(C(N)=O)nccc12)c1ccc(C(C)C)cc1` [Compound 40, 4-[(S)-1-(4-Isopropyl-phenyl)-2-methylamino-ethylamino]-pyrido[3,4-d]pyrimidine-8-carboxylic Acid Amide], the IC50 was 25 to 100 nM in assay [1] and greater than 1000 nM in assay [2].
Consider `CNC[C@@H](Nc1ncnc2c(C(N)=O)ccnc12)c1ccc(C(F)(F)F)cc1` [Compound 38, 4-[(S)-2-Methylamino-1-(4-trifluoromethyl-phenyl)-ethylamino]-pyrido[3,2-d]pyrimidine-8-carboxylic Acid Amide], for which the half-inhibitory concentration (IC50) in assay [1] is less than 25 nM; in assay [2] it was 25 to 100 nM.
As to `CCNC[C@@H](Nc1ncnc2c(C(N)=O)ccnc12)c1ccc(Cl)c(C(F)(F)F)c1` [Compound 33, 4-[(S)-1-(4-Chloro-3-trifluoromethyl-phenyl)-2-ethylamino-ethylamino]-pyrido[3,2-d]pyrimidine-8-carboxylic Acid Amide], the IC50 is less than 25 nM in assay [1] and 25 to 100 nM in assay [2].
In the same order, the values of `CN(C)C[C@@H](Nc1nnnc2c(C(N)=O)cccc12)c1ccc(Cl)c(Cl)c1` [Compound 15, (S)-4-((1-(3,4-dichlorophenyl)-2-(dimethylamino)ethyl)amino)benzo[d][1,2,3]triazine-8-carboxamide] are less than 25 nM and less than 25 nM.
In the same order, the values of `N#Cc1cc([C@@H](CN2CCC2)Nc2nnnc3c(C(N)=O)cccc23)ccc1Cl` [Compound 18, (S)-4-((2-(azetidin-1-yl)-1-(4-chloro-3-cyanophenyl)ethyl)amino)benzo[d][1,2,3]triazine-8-carboxamide] are less than 25 nM and 101 to 500 nM.
In the case of `CNC[C@@H](Nc1ncnc2c(C(N)=O)ccnc12)c1ccc(OC(F)(F)F)c(Cl)c1` [Compound 74, 4-[(S)-1-(3-Chloro-4-trifluoromethoxy-phenyl)-2-methylamino-ethylamino]-pyrido[3,2-d]pyrimidine-8-carboxylamide], the IC50 in assay [1] was less than 25 nM; in assay [2], 25 to 100 nM.
